# Measured values from US7101878B1 (Agouron Pharmaceuticals, Inc., priority 1998, dated 2006).
# Columns and labels:
# [1] = molecular target: CYP3A4 Cytochrome P450 (Homo sapiens, UniProt P08684)
# [2] = molecular target: LTB4 (Homo sapiens, UniProt Q15722); assay: biochemical
# [3] = molecular target: LTD4 (Homo sapiens, UniProt Q9Y271); assay: biochemical
# [4] = molecular target: TXA2 (Homo sapiens, UniProt P21731); assay: biochemical
# [5] = molecular target: PAF (Homo sapiens, UniProt P25105); assay: biochemical
# Chain of PAF (P25105 whole entry): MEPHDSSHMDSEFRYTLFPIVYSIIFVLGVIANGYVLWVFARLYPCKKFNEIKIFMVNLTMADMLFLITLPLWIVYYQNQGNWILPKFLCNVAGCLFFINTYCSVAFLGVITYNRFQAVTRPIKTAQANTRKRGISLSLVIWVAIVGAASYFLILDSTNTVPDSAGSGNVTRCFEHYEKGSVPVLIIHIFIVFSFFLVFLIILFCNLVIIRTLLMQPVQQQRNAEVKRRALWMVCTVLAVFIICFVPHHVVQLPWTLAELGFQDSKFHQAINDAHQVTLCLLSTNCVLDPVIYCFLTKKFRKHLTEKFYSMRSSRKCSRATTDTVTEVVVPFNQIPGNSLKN
# [6] = molecular target: TRH (Homo sapiens, UniProt P34981); assay: biochemical
# Chain of TRH (P34981 whole entry): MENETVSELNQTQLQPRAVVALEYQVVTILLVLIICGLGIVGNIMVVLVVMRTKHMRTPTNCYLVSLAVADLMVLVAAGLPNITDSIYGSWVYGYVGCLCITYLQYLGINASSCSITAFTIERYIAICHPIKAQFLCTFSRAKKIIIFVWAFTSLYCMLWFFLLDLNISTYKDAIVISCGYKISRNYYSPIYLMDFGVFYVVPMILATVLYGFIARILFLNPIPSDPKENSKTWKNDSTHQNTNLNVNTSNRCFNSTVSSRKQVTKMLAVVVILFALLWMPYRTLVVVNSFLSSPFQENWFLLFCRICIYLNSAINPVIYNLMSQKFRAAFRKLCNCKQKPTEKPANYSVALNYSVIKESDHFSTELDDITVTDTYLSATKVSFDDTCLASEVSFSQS
# [7] = molecular target: Bradykinin 2 (Homo sapiens, UniProt P30411); assay: biochemical
# Chain of Bradykinin 2 (P30411 whole entry): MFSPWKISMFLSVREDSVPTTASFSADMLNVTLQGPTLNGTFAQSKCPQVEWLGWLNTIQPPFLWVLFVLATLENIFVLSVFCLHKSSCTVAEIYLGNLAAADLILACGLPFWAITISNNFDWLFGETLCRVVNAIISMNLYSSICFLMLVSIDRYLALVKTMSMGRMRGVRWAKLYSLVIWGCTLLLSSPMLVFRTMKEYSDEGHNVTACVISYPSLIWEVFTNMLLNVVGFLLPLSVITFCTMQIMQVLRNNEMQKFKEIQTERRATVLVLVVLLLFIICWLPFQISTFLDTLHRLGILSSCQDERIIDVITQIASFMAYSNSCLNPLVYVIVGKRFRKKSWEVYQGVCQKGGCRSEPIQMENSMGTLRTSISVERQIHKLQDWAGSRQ
# [8] = molecular target: CCKA (Homo sapiens, UniProt P32238); assay: biochemical
# Chain of CCKA (P32238 whole entry): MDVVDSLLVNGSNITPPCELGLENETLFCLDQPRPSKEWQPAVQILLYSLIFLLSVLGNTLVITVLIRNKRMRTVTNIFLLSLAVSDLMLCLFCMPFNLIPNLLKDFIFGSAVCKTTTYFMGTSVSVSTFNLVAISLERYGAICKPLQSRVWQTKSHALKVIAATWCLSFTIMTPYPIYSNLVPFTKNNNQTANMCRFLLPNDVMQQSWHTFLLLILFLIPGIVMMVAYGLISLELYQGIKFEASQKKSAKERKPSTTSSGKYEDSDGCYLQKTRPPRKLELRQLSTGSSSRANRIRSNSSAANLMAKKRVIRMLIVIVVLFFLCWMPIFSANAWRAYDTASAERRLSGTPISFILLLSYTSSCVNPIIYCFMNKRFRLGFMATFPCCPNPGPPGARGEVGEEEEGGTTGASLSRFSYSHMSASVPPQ
# [9] = molecular target: ET-A (Homo sapiens, UniProt P25101); assay: biochemical
# Chain of ET-A (P25101 21-427): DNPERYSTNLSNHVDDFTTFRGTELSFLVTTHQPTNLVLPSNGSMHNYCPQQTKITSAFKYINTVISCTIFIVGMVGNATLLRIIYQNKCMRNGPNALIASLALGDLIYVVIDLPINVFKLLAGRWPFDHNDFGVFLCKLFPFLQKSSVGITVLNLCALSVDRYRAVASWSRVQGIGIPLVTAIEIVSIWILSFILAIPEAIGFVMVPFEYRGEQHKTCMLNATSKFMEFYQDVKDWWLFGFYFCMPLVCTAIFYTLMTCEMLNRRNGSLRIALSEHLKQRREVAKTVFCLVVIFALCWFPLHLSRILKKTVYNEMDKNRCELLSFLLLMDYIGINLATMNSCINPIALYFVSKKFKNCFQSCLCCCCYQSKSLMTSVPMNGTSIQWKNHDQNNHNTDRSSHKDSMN
# [10] = molecular target: NK1 (Homo sapiens, UniProt P25103); assay: biochemical
# [11] = molecular target: NK2 (Homo sapiens, UniProt P21452); assay: biochemical
# Chain of NK2 (P21452 whole entry): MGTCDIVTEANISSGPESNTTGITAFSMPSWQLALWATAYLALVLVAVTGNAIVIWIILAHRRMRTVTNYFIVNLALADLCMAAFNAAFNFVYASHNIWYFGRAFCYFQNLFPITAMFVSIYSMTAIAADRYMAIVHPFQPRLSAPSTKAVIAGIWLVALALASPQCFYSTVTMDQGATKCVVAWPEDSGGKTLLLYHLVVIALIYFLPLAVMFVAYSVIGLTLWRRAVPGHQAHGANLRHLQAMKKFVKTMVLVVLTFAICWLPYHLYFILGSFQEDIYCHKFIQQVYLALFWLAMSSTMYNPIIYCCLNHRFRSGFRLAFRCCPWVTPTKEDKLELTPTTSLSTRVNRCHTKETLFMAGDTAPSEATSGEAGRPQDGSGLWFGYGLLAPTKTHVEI
# [12] = molecular target: MAO-A (Homo sapiens, UniProt P21397); assay: Selectivity: MAO-A
# [13] = molecular target: MAO-B (Homo sapiens, UniProt P27338); assay: Selectivity: MAO-B
# [14] = molecular target: H1 Histamine (Homo sapiens, UniProt P35367); assay: Selectivity: H1 Histamine
# Chain of H1 Histamine (P35367 whole entry): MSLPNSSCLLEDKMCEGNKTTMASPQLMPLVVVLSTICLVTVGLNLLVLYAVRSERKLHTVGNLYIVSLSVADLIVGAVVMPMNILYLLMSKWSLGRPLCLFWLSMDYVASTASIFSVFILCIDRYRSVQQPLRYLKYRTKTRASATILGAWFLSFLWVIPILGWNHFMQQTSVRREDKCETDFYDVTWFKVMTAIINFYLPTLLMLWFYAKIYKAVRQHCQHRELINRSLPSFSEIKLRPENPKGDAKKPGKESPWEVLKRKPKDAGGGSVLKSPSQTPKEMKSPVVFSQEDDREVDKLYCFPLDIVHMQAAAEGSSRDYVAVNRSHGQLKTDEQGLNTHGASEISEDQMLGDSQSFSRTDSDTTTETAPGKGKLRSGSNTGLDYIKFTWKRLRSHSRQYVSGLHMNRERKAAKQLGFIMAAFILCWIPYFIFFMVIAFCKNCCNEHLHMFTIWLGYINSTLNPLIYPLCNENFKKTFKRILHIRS
# [15] = molecular target: H2 Histamine (Homo sapiens, UniProt P25021); assay: Selectivity: H2 Histamine
# Chain of H2 Histamine (P25021 whole entry): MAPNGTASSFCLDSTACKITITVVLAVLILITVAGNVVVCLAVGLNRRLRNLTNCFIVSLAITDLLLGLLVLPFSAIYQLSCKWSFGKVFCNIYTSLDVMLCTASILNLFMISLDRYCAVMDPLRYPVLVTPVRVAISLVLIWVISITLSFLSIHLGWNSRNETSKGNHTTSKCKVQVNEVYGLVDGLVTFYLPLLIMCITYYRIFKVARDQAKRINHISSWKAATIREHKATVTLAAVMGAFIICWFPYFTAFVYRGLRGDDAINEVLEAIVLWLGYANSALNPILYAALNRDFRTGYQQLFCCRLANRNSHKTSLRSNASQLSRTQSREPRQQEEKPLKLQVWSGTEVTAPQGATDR
# [16] = molecular target: H3 Histamine (Homo sapiens, UniProt Q9Y5N1); assay: Selectivity: H3 Histamine
# Chain of H3 Histamine (Q9Y5N1 whole entry): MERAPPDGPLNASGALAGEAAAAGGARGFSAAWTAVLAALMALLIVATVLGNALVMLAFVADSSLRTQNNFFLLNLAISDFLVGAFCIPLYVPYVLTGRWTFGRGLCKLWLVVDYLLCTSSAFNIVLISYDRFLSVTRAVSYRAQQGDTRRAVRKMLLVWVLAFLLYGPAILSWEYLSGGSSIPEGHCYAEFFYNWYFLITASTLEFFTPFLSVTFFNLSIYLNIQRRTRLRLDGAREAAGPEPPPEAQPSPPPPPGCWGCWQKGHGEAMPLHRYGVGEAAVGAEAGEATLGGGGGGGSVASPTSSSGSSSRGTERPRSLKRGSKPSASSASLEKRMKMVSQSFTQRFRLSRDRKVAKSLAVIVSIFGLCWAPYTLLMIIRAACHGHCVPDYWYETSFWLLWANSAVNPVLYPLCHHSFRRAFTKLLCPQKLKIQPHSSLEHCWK
# [17] = molecular target: N-type Ca2+ Channel (Homo sapiens, UniProt Q00975); assay: Selectivity: N-type Ca2+ Channel
# [18] = tested on: rat mast cells; assay: Selectivity: Basal Histamine Release (rat mast cells); conditions: Mast cell, read-out: Basal Histamine Release (rat mast cells) EC50
# [19] = Intact male rat, testosterone suppression; format: in vivo; conditions: male, Sprague-Dawley, rat, plasma, intramuscular; 100 mg/kg im*, 7 days; read-out: Range of Plasma Conc.
# Excerpt: (§1) Testosterone is a hormone regulated by the hypothalamic-pituitary-gonadal axis. GnRH is secreted in pulses from the hypothalamus and stimulates the anterior pituitary gland to release gonadotropic hormones LH and FSH. Testosterone is produced when the testes are stimulated by LH. The quantity of testosterone secreted increases approximately in direct proportion to the amount of LH available (Guyton, 1986).
# (§2) Male Sprague-Dawley (250-275 g) rats were single-housed and allowed to acclimate for 1 week prior to study. On study day animals were dosed with vehicle or test compound by various routes of administration, including ip, sc, or po. Blood samples were obtained via cardiac puncture under halothane anesthesia from individual animals at predetermined time points post treatment. Blood samples were drawn into heparin containing tubes. Blood was centrifuged immediately, plasma collected and stored in −20° freezer until assayed. Plasma samples were analyzed using DSL-4000 ACTIVE Testosterone coated-tube raduioimmunoassay kit from Diagnostic Systems Laboratories, Inc.
# (§3) Male Sprague-Dawley (250-275 g) rats were single-housed and allowed to acclimate for 1 week prior to study. We developed a technique to allow for repeated sampling from the jugular vein by using microrenathane (MRE) catheters implanted 7 days prior to study. Details of the surgical procedure have been described previously {Harms and Ojeda, 1974}. On study day, animals were allowed to acclimate to the procedure room while residing in their home cage. Basal blood samples were drawn from all animals. Immediately following basal sampling, vehicle or test compounds were administered by various routes. The routes of administration employed were intravenous (iv), intramuscular (im), and oral (po). Blood samples were drawn into heparin containing tubes at multiple time points post treatment. Blood was centrifuged immediately, plasma collected and stored in −20° freezer until assayed. Plasma samples were analyzed using DSL-4000 ACTIVE Testosterone coated-tube raduioimmunoassay kit from Diagnostic Systems Laboratories, Inc.
# (§4) Male Sprague-Dawley (250-275 g) rats were double-housed and allowed to acclimate for 1 week prior to study. Daily vehicle treatments were administered either, im, sc, or po between 8:00 and 9:00 am for seven days. On day 8 between 8:00 and 9:00 am, blood samples were drawn via cardiac puncture under halothane anesthesia. The procedure was complete in 45-60 seconds. Over the next 7 days one groups of animals continued to receive vehicle treatments while another group of animals received no treatment. Samples were collected as described above following the 7th day of this treatment regimen. Testosterone levels were not different between vehicle treated animals and untreated animals.
# (§5) Daily im dosing of Compound 134 (100 mg/kg) or vehicle was performed between 8:00 and 9:00 am for seven days. Samples were collected as described above following the 7th day of treatment.
# (§6) All blood samples were collected in heparin containing tubes. Blood was centrifuged immediately, plasma collected and stored in −20° freezer until assayed the next day. Plasma samples were analyzed using DSL-4000 ACTIVE Testosterone coated-tube raduioimmunoassay kit from Diagnostic Systems Laboratories, Inc.
# [20] = tested on: testosterone levels in intact male rats; assay: Intact male rat, testosterone suppression; format: in vivo
# Excerpt: as §1, §2, §3, §4, §5, §6
# Chain of TXA2 (P21731 whole entry): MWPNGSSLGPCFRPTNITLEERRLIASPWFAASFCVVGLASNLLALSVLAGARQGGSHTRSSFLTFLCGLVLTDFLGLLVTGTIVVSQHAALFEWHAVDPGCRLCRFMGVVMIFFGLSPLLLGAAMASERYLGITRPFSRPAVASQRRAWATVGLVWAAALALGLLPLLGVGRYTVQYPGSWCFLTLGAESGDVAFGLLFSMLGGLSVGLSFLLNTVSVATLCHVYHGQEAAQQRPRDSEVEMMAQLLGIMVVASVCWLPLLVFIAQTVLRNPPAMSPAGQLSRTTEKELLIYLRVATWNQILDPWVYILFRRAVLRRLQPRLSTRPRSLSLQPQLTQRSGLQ
# Chain of LTB4 (Q15722 whole entry): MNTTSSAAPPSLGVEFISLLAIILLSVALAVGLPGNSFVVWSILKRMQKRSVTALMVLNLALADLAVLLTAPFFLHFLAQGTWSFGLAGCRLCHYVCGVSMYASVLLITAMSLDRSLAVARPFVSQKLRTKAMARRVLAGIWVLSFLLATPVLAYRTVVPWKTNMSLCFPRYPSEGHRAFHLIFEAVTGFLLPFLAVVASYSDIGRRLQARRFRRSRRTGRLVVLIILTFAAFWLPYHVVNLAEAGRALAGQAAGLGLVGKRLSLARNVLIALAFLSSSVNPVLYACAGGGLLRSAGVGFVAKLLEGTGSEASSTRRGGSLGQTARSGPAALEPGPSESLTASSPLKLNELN
# Chain of CYP3A4 Cytochrome P450 (P08684 whole entry): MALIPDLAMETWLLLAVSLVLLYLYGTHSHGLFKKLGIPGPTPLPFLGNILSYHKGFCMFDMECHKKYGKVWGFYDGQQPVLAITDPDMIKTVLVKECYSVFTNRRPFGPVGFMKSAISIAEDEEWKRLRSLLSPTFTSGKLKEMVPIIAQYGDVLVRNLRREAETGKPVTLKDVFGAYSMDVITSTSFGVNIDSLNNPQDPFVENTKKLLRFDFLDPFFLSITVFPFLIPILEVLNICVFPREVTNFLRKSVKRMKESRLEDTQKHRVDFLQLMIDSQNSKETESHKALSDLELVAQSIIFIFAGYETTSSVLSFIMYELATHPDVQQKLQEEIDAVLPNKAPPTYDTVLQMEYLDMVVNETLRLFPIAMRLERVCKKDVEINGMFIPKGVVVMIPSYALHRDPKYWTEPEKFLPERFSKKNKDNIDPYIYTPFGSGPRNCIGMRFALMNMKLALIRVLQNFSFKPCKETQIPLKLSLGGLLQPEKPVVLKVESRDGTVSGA
smiles,measurement,setting,value
COc1cccc(OC)c1NC(=O)c1ccc(Cc2cc3c(cc2C)C(C)(C)CCC3(C)C)o1 [Compound 20],IC50,[1],1700 nM
same,Ki,[2],> 1000 nM
same,Ki,[3],> 1000 nM
same,Ki,[4],> 1000 nM
same,Ki,[5],3 to 5 µM
same,Ki,[6],> 1000 nM
same,Ki,[7],> 1000 nM
same,Ki,[8],> 1000 nM
same,Ki,[9],> 1000 nM
same,Ki,[10],> 1000 nM
same,Ki,[11],> 1000 nM
same,Ki,[12],> 1000 nM
same,Ki,[13],> 1000 nM
same,Ki,[14],> 1000 nM
same,Ki,[15],~1000 nM
same,Ki,[16],> 1000 nM
same,Ki,[17],> 1000 nM
same,EC50,[18],> 10 µM
COc1cc(OC)c(NC(=O)c2ccc(Cc3cc4c(cc3C)C(C)(C)CCC4(C)C)o2)c(OC)c1 [Compound 134],concentration at 7 days,[19],1300 nM
same,% Testosterone suppression,[20]; 20 mg/kg ip,36%
same,Range of Plasma Conc.,[20]; 20 mg/kg ip,0.2 µM
same,Suppression Duration,[20]; 20 mg/kg ip,4 h
same,time of % Testosterone suppression,[20]; 20 mg/kg ip,4 h
same,Range of Plasma Conc.,"[20]; 20 mg/kg po, @ 1 hr",1.1 @ 1 hr μM
same,Range of Plasma Conc.,"[20]; 20 mg/kg po, @ 2 hr",0.15 @ 2 hr μM
same,Range of Plasma Conc.,"[20]; 20 mg/kg po, @ 4 hr",0.17 @ 4 hr μM
same,% Testosterone suppression,[20]; 50 mg/kg po,75%
same,Suppression Duration,[20]; 50 mg/kg po,8 h
same,time of % Testosterone suppression,[20]; 50 mg/kg po,4 h
same,% Testosterone suppression,"[20]; 100 mg/kg im*, 7 days",80%
same,Suppression Duration,"[20]; 100 mg/kg im*, 7 days",12 h
same,time of % Testosterone suppression,"[20]; 100 mg/kg im*, 7 days",12 h
same,% Testosterone suppression,[20]; 100 mg/kg po,80%
same,Suppression Duration,[20]; 100 mg/kg po,12 h
same,time of % Testosterone suppression,[20]; 100 mg/kg po,6 h
same,% Testosterone suppression,[20]; 100 mg/kg sc,60%
same,Range of Plasma Conc.,[20]; 100 mg/kg sc,0.13 µM
same,Suppression Duration,[20]; 100 mg/kg sc,24 h
same,time of % Testosterone suppression,[20]; 100 mg/kg sc,24 h
same,testosterone levels,"[20]; 7 days of repeated treatment, 100 mg/kg im daily, p<0.05",significantly suppressed testosterone levels
same,testosterone levels,"[20]; oral gavage, highest dose, 12 hour time course and 24 hour time point",suppressed testosterone throughout the course of the study
Cc1cc2c(cc1Cc1ccc(C(=O)NCc3cccc(CNc4ccnc(NC[C@@H]5CCCO5)n4)c3)o1)C(C)(C)CCC2(C)C [Compound 136],% Testosterone suppression,[20]; 20 mg/kg ip,72%
same,Range of Plasma Conc.,[20]; 20 mg/kg ip,0.4 µM
same,Suppression Duration,[20]; 20 mg/kg ip,6 h
same,time of % Testosterone suppression,[20]; 20 mg/kg ip,6 h
same,% Testosterone suppression,[20]; 40 mg/kg po,46%
same,Range of Plasma Conc.,[20]; 40 mg/kg po,0.34 µM
same,Suppression Duration,[20]; 40 mg/kg po,4 h
same,time of % Testosterone suppression,[20]; 40 mg/kg po,4 h
same,testosterone levels,"[20]; 6 hours post ip injection, vs vehicle, p<0.05",suppressed testosterone levels
